Experimental data: ChEMBL document CHEMBL1201862, “PubChem BioAssay data set” (2004)
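These data come from cells grown in 96-well plates and exposed to compound for 48 hours at five concentrations. The concentration for 50% growth inhibition is given as GI50.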 Calls of active or inactive are those of the source. Rule as the data show it: active = GI50 up to about 1.1 µM and inactive = higher.

Legend:
Assay in all cases: NCI anticancer screen, dose series, 48 h
786-0 = tested on: 786-0
A498 = tested on: A498
BT-549 = tested on: BT-549
HCT-116 = tested on: HCT-116
HOP-62 = tested on: HOP-62
HT-29 = tested on: HT-29
K562 = tested on: K562
MDA-MB-231 = tested on: MDA-MB-231
MDA-MB-435 = tested on: MDA-MB-435
Malme-3M = tested on: Malme-3M
NCI-H23 = tested on: NCI-H23
NCI/ADR-RES = tested on: NCI/ADR-RES
OVCAR-3 = tested on: OVCAR-3
OVCAR-5 = tested on: OVCAR-5
RPMI-8226 = tested on: RPMI-8226
SF-539 = tested on: SF-539
SK-MEL-28 = tested on: SK-MEL-28
SN12C = tested on: SN12C
SNB-19 = tested on: SNB-19
UACC-62 = tested on: UACC-62

Measured: GI50

Cc1cc(N)ccc1C=O
inactive: 786-0 > 100 µM | A498 > 100 µM | BT-549 > 100 µM | HCT-116 > 100 µM | HOP-62 > 100 µM | HT-29 > 100 µM | K562 > 100 µM | MDA-MB-231 > 100 µM | MDA-MB-435 > 100 µM | Malme-3M > 100 µM | NCI-H23 > 100 µM | NCI/ADR-RES > 100 µM | OVCAR-3 > 100 µM | OVCAR-5 > 100 µM | RPMI-8226 > 100 µM | SF-539 > 100 µM | SK-MEL-28 > 100 µM | SN12C > 100 µM | SNB-19 > 100 µM | UACC-62 > 100 µM

C=CCSS/C=C/C[S+]([O-])CC=C (configuration not stated) [AJOENE]
inactive: 786-0 18.3 µM | A498 > 100 µM | BT-549 25.6 µM | HCT-116 13.1 µM | HOP-62 > 100 µM | HT-29 29.9 µM | K562 5.83 µM | MDA-MB-231 25.2 µM | MDA-MB-435 18.2 µM | Malme-3M 49.2 µM | NCI-H23 46.6 µM | NCI/ADR-RES 26.2 µM | OVCAR-3 37.1 µM | OVCAR-5 36.6 µM | RPMI-8226 10.4 µM | SF-539 25 µM | SK-MEL-28 20.7 µM | SN12C 26 µM | SNB-19 > 100 µM | UACC-62 36.3 µM

Cc1cc2c(C(C)C)c(O)c(O)c(/C=N/c3cc(C(F)(F)F)ccc3Cl)c2c(O)c1-c1c(C)cc2c(C(C)C)c(O)c(O)c(/C=N/c3cc(C(F)(F)F)ccc3Cl)c2c1O
inactive: 786-0 50.6 µM | A498 64.3 µM | BT-549 28.3 µM | HCT-116 74.8 µM | HOP-62 70.5 µM | HT-29 32.5 µM | K562 39.4 µM | MDA-MB-231 25.6 µM | MDA-MB-435 32.6 µM | Malme-3M 32.8 µM | NCI-H23 57.8 µM | NCI/ADR-RES 63.5 µM | OVCAR-3 37.3 µM | OVCAR-5 77.3 µM | RPMI-8226 50.7 µM | SF-539 58.6 µM | SK-MEL-28 38.1 µM | SN12C 49.1 µM | SNB-19 28.1 µM | UACC-62 24.6 µM

O=C1/C(=C/c2ccc(O)cc2)Oc2ccccc21
inactive: 786-0 > 100 µM | A498 > 100 µM | BT-549 > 100 µM | HCT-116 98.4 µM | HOP-62 > 100 µM | HT-29 > 100 µM | K562 40.9 µM | MDA-MB-231 > 100 µM | MDA-MB-435 83.9 µM | Malme-3M > 100 µM | NCI-H23 62.7 µM | NCI/ADR-RES > 100 µM | OVCAR-3 > 100 µM | OVCAR-5 > 100 µM | RPMI-8226 59.2 µM | SF-539 > 100 µM | SK-MEL-28 > 100 µM | SN12C > 100 µM | SNB-19 > 100 µM | UACC-62 > 100 µM

C[N+](C)(C)/C=N\c1cccc2nsnc12
inactive: 786-0 > 100 µM | A498 > 100 µM | BT-549 > 100 µM | HCT-116 > 100 µM | HOP-62 > 100 µM | HT-29 > 100 µM | K562 > 100 µM | MDA-MB-231 > 100 µM | MDA-MB-435 > 100 µM | Malme-3M > 100 µM | NCI-H23 > 100 µM | NCI/ADR-RES > 100 µM | OVCAR-3 > 100 µM | OVCAR-5 > 100 µM | RPMI-8226 > 100 µM | SF-539 > 100 µM | SK-MEL-28 > 100 µM | SN12C > 100 µM | SNB-19 > 100 µM | UACC-62 > 100 µM

C#Cc1cc(Br)c(OC(=O)C(C)(C)C)c(-c2cc(C#C)cc(Br)c2OC(=O)C(C)(C)C)c1
inactive: 786-0 41.5 µM | A498 57.7 µM | BT-549 > 100 µM | HCT-116 21 µM | HOP-62 55.6 µM | HT-29 22.1 µM | K562 35.8 µM | MDA-MB-231 35.1 µM | MDA-MB-435 45.8 µM | Malme-3M > 100 µM | NCI-H23 30.5 µM | NCI/ADR-RES > 100 µM | OVCAR-3 80 µM | OVCAR-5 21.2 µM | RPMI-8226 12.5 µM | SF-539 64.6 µM | SK-MEL-28 61.2 µM | SN12C 53 µM | SNB-19 43.9 µM | UACC-62 81.5 µM

N#Cc1ccccc1-c1nc2c3c(c(N)ccc3n1)C(=O)c1ccccc1-2
inactive: 786-0 33 µM | A498 43.6 µM | BT-549 > 100 µM | HCT-116 29.7 µM | HOP-62 18.1 µM | HT-29 43.4 µM | K562 43.5 µM | MDA-MB-231 10.3 µM | MDA-MB-435 76.2 µM | Malme-3M > 100 µM | NCI-H23 88.7 µM | NCI/ADR-RES > 100 µM | OVCAR-3 45.1 µM | OVCAR-5 34.8 µM | RPMI-8226 14.3 µM | SF-539 37.3 µM | SK-MEL-28 24.8 µM | SN12C 60 µM | SNB-19 55.1 µM | UACC-62 64.6 µM

Cc1c(NC(=S)Nc2ccc([N+](=O)[O-])cc2)c(=O)n(-c2ccccc2)n1C
inactive: 786-0 > 100 µM | A498 > 100 µM | BT-549 > 100 µM | HCT-116 > 100 µM | HOP-62 > 100 µM | HT-29 > 100 µM | K562 69.5 µM | MDA-MB-231 > 100 µM | MDA-MB-435 > 100 µM | Malme-3M > 100 µM | NCI-H23 > 100 µM | NCI/ADR-RES > 100 µM | OVCAR-3 > 100 µM | OVCAR-5 > 100 µM | RPMI-8226 16.6 µM | SF-539 > 100 µM | SK-MEL-28 > 100 µM | SNB-19 > 100 µM | UACC-62 > 100 µM

COC(=O)/C=C1/CCC(C)(C(=O)NS(=O)(=O)c2ccc(C)cc2)C1(C)C (configuration not stated)
inactive: 786-0 > 100 µM | A498 > 100 µM | BT-549 > 100 µM | HCT-116 > 100 µM | HOP-62 > 100 µM | K562 > 100 µM | MDA-MB-231 > 100 µM | MDA-MB-435 > 100 µM | Malme-3M > 100 µM | NCI-H23 > 100 µM | NCI/ADR-RES > 100 µM | OVCAR-3 > 100 µM | OVCAR-5 > 100 µM | RPMI-8226 > 100 µM | SF-539 > 100 µM | SK-MEL-28 > 100 µM | SN12C > 100 µM | SNB-19 > 100 µM | UACC-62 > 100 µM

CCOC(=O)c1nc2ccc(C(F)(F)F)cc2nc1Oc1cc(OC)cc(OC)c1
inactive: 786-0 > 100 µM | A498 > 100 µM | BT-549 > 100 µM | HCT-116 > 100 µM | HOP-62 65.6 µM | HT-29 > 100 µM | K562 > 100 µM | MDA-MB-231 > 100 µM | MDA-MB-435 77.6 µM | Malme-3M 35.8 µM | NCI/ADR-RES > 100 µM | OVCAR-3 > 100 µM | OVCAR-5 > 100 µM | RPMI-8226 > 100 µM | SF-539 57.1 µM | SK-MEL-28 > 100 µM | SN12C > 100 µM | SNB-19 68.9 µM | UACC-62 > 100 µM
